Experimental data published in patent US20150265644A1, “THERAPEUTIC METHODS AND COMPOSITIONS FOR TREATING DIABETES UTILIZING DITERPENOID COMPOUNDS” (Orient Europharma Co., Ltd., priority 2014, published 2015).

Tests used:
[1] = test system: phosphor-AS160 (Thr^642); test: Western blot of liver, phospho-AS160; format: in vivo; details: mice with type 1 DM, 10 mgkg^−1 i.p. twice a day for 7 days
Method: (§1) After three days of acclimatization, the mice had free access to a standard rodent chow (normal mice), a standard rodent chow after single 250 mgkg^−1 streptozotocin (STZ) intraperitoneal injection (TIDM mice), and a fat-rich chow diet and fructose-sweetened water (T2DM mice) for 4 weeks. The induction of Type 1 DM was assessed and confirmed when the mice had plasma glucose levels ≧350 mgdL^−1, accompanied with polyuria, hyperphagia and decreased body weight. The induction Type 2 DM in the mice was assessed by measuring fasting plasma glucose levels and confirmed when plasma glucose level was ≧150 mgdL^−1 after the 4-week induction. […]
(§2) Western blot analysis was carried out by known methods with a slight modification. […] After centrifuging the homogenates at 10,000 g for 30 minutes, the protein concentrations were determined by using a BCA Protein Assay Kit (Pierce Biotechnology, Rockford, Ill.). […] The membranes were analysed by using the antibodies against phospho-insulin receptor β (IRβ) (Tyr^1345), phospho-Akt (Ser^473), phosphor-AS160 (Thr^642), AS160 (Cell Signaling Technology, Beverly, Mass.), IRβ, Akt, β-Actin (Santa Cruz Biotechnology, Santa Cruz, Calif.), GLUT2 (Abcam, Cambridge, UK), and PEPCK (a gift from Professor D K Granner), respectively. […] The intensity of each band was quantified with ImageQuant.

[2] = Intraperitoneal glucose tolerance test; format: in vivo, mice
Method: After three days of acclimatization, the mice had free access to a standard rodent chow (normal mice), a standard rodent chow after single 250 mgkg^−1 streptozotocin (STZ) intraperitoneal injection (TIDM mice), and a fat-rich chow diet and fructose-sweetened water (T2DM mice) for 4 weeks. The induction of Type 1 DM was assessed and confirmed when the mice had plasma glucose levels ≧350 mgdL^−1, accompanied with polyuria, hyperphagia and decreased body weight. The induction Type 2 DM in the mice was assessed by measuring fasting plasma glucose levels and confirmed when plasma glucose level was ≧150 mgdL^−1 after the 4-week induction. The animals were assigned randomly into three groups, with seven animals in each group. In group I, the mice were treated with vehicle, 2% DMSO in normal saline, as the negative control. In group II, the mice were intraperitoneally treated with borapetoside A (0.1-10 mgkg^−1). In […], the mice received intraperitoneally metformin (300 mgkg^−1; Sigma Chemical Co., St. Louis, Mo., U.S.A.) or insulin (0.5 IUkg^−1; Insulin Actrapid® HM; Novo Nordisk, Denmark). In the acute study, mice under anesthesia received a single intraperitoneal administration of borapetoside A, negative control, or positive control. In the subacute study, mice received intraperitoneal administrations of borapetoside A, vehicle, or insulin twice a day for seven days.
Blood samples were collected from the orbital vascular plexus of the mice under anesthesia. Blood samples were then centrifuged at 13000 rpm for 5 min, and the plasma samples were collected and kept on ice prior to the assay. The plasma glucose concentration was measured by Glucose Kit Reagent (Biosystems S.A., Barcelona, Spain) following the manufacturer's instructions, and the insulin levels were estimated using mouse insulin ELISA kit (Mercodia AB, Uppsala, Sweden).
The mice were maintained under anesthesia throughout the procedure. Glucose (2.0 gkg^−1) was administered intraperitoneally. Blood samples were collected from the orbital vascular plexus at 0, 30, 60, 120 min. The concentrations of the plasma glucose were measured, and the values of AUC were calculated accordingly.

[3] = test system: GLUT2; test: Western blot of liver, GLUT2 expression; format: in vivo; details: mice with type 1 DM, 10 mgkg^−1 i.p. twice a day for 7 days
Method: as §1, §2

[4] = test system: PEPCK; test: Western blot of liver, PEPCK expression; format: in vivo; details: mice with type 1 DM, 10 mgkg^−1 i.p. twice a day for 7 days
Method: as §1, §2

[5] = test system: C2C12 skeletal muscle cells; test: Glycogen content assay in differentiated C2C12 myotubes; format: cell-based; details: 30 minutes
Method: The C2C12 skeletal muscle cells were cultured in Dulbecco's modified Eagle's medium (DMEM; Gibco/Invitrogen, Carlsbad, Calif.), and the human hepatocellular carcinoma cell line, Hl-ep3B, was cultured in Roswell Park Memorial Institute medium 1640 (RPMI 1640 medium; Gibco/Invitrogen, Carlsbad, Calif.). Cells were cultured at 37° C. in the humidified incubator supplied with 5% CO2. Culture mediums were supplemented with 4.5 mgmL^−1 glucose, penicillin 100 IUmL^−1, streptomycin 100 μgmL^−1 and 10% fetal bovine serum (Gibco/Invitrogen, Carlsbad, Calif.). Only C2C12 cells were then switched to 2% horse serum for 3 days after reaching the 70% confluence. Myotubes formation was achieved after 4 days of incubation, and the cells were used for subsequent experiments. Culture mediums were replaced by serum free DMEM or RPMI for 24 h before experiments (see e.g., procedure described in Sultan et al., 2006).
C2C12 and Hep3B cells were treated with 1 nM insulin, 100 μM metformin, and the assigned concentration of borapetoside A for 30 minutes. To develop the insulin resistance state of cells, C2C12 cells were incubated with IL-6 at 20 ngmL^−1 for 1 hour. Later, the cells were treated with 1 nM insulin, 100 μM metformin, and the assigned concentration of borapetoside A for 30 minutes. After the assigned treatment, cells were washed twice with phosphate buffered saline (PBS). Glycogen content was measured as previously described, with some modifications (see e.g., Savage et al., 2008). The protein concentrations of the cell lysates were determined by using Pierce BCA Protein Assay Kit (Thermo-Scientific, Rockford, Ill.). The glycogen content of each sample was normalized by total protein.

C[C@@]12C[C@@H](c3ccoc3)OC(=O)[C@@H]1C[C@@H]1OC(=O)[C@@]3(O)[C@@H](O[C@@H]4O[C@H](CO)[C@@H](O)[C@H](O)[C@H]4O)CC[C@@H]2[C@@]13C [borapetoside A]
phosphorylated AS160 in liver [1]: increased
increase of plasma glucose level at 30 min ([2]; 0.1, 1, and 10 mgkg^−1, compared to the vehicle group, normal and type 2 DM mice): significantly suppressed
area under the curve (AUC) of plasma glucose, % of vehicle control ([2]; normal mice, 0.1 mgkg^−1): 78.8±3.0%
area under the curve (AUC) of plasma glucose, % of vehicle control ([2]; normal mice, 1 mgkg^−1): 69.9±7.1%
area under the curve (AUC) of plasma glucose, % of vehicle control ([2]; normal mice, 10 mgkg^−1): 68.91±3.5%
area under the curve (AUC) of plasma glucose, % of vehicle control ([2]; type 2 DM bearing mice, 0.1 mgkg^−1): 74.9±4.5%
area under the curve (AUC) of plasma glucose, % of vehicle control ([2]; type 2 DM bearing mice, 1 mgkg^−1): 71.1±3.2%
area under the curve (AUC) of plasma glucose, % of vehicle control ([2]; type 2 DM bearing mice, 10 mgkg^−1): 68.9±1.9%
expression of GLUT2 in liver [3]: increased
PEPCK expression in liver [4]: significant decrease
fold increase of glycogen ([5]; 10^−6 mol/L): 1.49±0.15 fold
fold increase of glycogen ([5]; 10^−7 mol/L): 1.28±0.04 fold
fold increase of glycogen [5]: 1.53±0.10 fold
